Patent publication US20160000750A1, “COMBINATION OF EGCG OR METHYLATED EGCG AND A PDE INHIBITOR” (KYUSHU UNIVERSITY, NATIONAL UNIVERSITY CORPORATION, priority 2010, published 2016)

Legend:
TLR 4 = assay: TLR4 expression in RAW 264.7 by Western blotting; format: cell-based, mouse; conditions: vardenafil 5 μM, EGCG 10 μM added after 3 hours, 24 hours, untreated = 100
Experimental: A mouse macrophage cell line, RAW 264.7, was seeded in a 5-mL dish at 1×10^5 cells/mL and was pre-cultured in a DMEM medium supplemented with 1% FCS for 24 hours. Subsequently, vardenafil was added thereto at a concentration of 5 μM. After 3 hours, EGCG was added thereto at a concentration of 0 μM or 10 μM. After 24 hours, the cells were collected, and the expressions of Toll-like receptor (TLR) 2 and TLR 4 were measured by Western blotting.

[1] = system: human multiple myeloma cell line, U266; assay: Apoptosis induction by Annexin V PI double staining, U266; format: cell-based; conditions: vardenafil 5 μM, EGCG 5 μM, 96 hours
Experimental: (§1) A propidium iodide (PI) staining solution was prepared by suspending PI (Sigma Corporation) in PBS at a concentration of 50 μg/mL and was used in investigation of the anti-cancer activity of a combination of EGCG and vardenafil by Annexin V PI double staining. The PBS used was prepared by dissolving 8.0 g of NaCl, 0.2 g of KCl, 1.15 g of Na2HPO4, and 0.2 g of KH2PO4 in 1 L of ultrapure water, followed by autoclave sterilization. The Annexin V Binding Buffer used was prepared with 10 mM HEPES, 140 mM NaCl, and 2.5 mM CaCl2 (Wako Pure Chemical Industries, Ltd.) to be pH 7.4, followed by filter sterilization.
(§2) Cell lines, U266 and HL60, adjusted to be 5×10^4 cells/mL (U266) and 1×10^4 cells/mL (HL60), respectively, in an RPMI 1640 medium supplemented with 1% FCS were seeded in a 96-well plate. […]
(§3) The plate was returned to the incubator immediately after the addition of EGCG, followed by culturing for 96 hours. […] The supernatant was removed, and the cells were suspended in an Annexin V Binding uffer, and the number of the cells was counted with a hemocytometer. […] Subsequently, 400 μL of an Annexin V Binding Buffer was added thereto from above, and the cells were counted with a flow cytometer, FACS Caliber (Becton, Dickinson and Company). After compensation, the Annexin V Alexa Fluor 488 Conjugate was measured at FL 1, and the cells deemed to be positive were determined as apoptotic cells. […]

[2] = system: acute myeloid leukemia cell line, HL60; assay: Apoptosis induction by Annexin V PI double staining, HL60; format: cell-based, human; conditions: vardenafil 5 μM, EGCG 5 μM, 96 hours
Experimental: as §1, §2, §3

[3] = anti-67LR antibody MLuc5 20 μg/mL

## (−)-epigallocatechin-3-O-gallate [EGCG]
TLR 4
  TLR4 expression level(%): 57%
[1]; Annexin V PI double staining
  apoptosis-inducing activity (apoptotic cell ratio): apoptosis was induced
[1]; [3]
  apoptosis-inducing activity under treatment with anti-67LR antibody: completely cancelled
[2]; Annexin V PI double staining
  apoptosis-inducing activity (apoptotic cell ratio): apoptosis was induced
[2]; [3]
  apoptosis-inducing activity under treatment with anti-67LR antibody: completely cancelled
